Measurements published in PMC9468011 (Nature Communications, 2022).

Target: T1, G-Flamp1 (cpGFP inserted into mlCNBD of the MlotiK1 channel) (Mesorhizobium japonicum, UniProt Q98GN8, P285N/S308V)
T1 construct: gene mll3241; GFP D173G plus Citrine/sfGFP mutations) inserted between residues 285 and 286; N-terminal RSET 6xHis tag kept for Kd; tag-free (SUMO cut) for crystal; E. coli; monomer
T1 sequence (Q98GN8 213-355 P285N/S308V): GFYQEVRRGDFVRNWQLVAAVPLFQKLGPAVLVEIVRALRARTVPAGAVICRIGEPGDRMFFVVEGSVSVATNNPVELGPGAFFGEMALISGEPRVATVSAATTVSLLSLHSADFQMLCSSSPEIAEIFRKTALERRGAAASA
Assay: fluorescence titration of purified sensor (ex […] nm), sigmoidal fit
Type: binding

## Nc1nc2c(ncn2[C@@H]2O[C@@H]3COP(=O)(O)O[C@H]3[C@H]2O)c(=O)[nH]1 [cGMP]
  Kd: 30.1 µM
